These results are taken from patent US11524010B2, “Substituted quinazoline sulfonamides as thioredoxin interacting protein (TXNIP) inhibitors” (SOUTHERN RESEARCH INSTITUTE, priority 2017, dated 2022).

One data set relates to wild-type mice. Nature of the data set: Oral administration to wild-type mice (glucose, glucagon, hepatic glucose production, lipids). The class given is in vivo. The protocol: Compound #11a was administered for three weeks in the drinking water of wild-type mice at about 100 mg/kg/d.
Further studies of hepatic glucose production and whole body glucose turnover, i.e., peripheral glucose uptake into muscle and adipose tissue, were performed using hyperinsulinemic-euglycemic clamp studies.

Another data set concerns db/db mice. Briefly: Obese diabetic db/db mice (Type 2 diabetes model). The format is in vivo. As to conditions: oral, 4 weeks. As for the experimental part:
Obese, insulin-resistant and diabetic, leptin receptor-deficient db/db mice were administered compound #11a as described above for 4 weeks. […] In addition, they can lower liver and serum lipid levels

A further data set concerns STZ-diabetic mice. Nature of the data set: Multiple low-dose STZ-induced diabetes in mice. The format is in vivo. As for the experimental part:
After having been rendered overtly diabetic by multiple low-dose STZ injections, mice received compound #11a by gavage at a dose of 100 mg/kg b.i.d or 30 mg/kg b.i.d. or received a vehicle control.

A further data set relates to TXNIP. Briefly: Inhibition of glucose-induced endogenous TXNIP expression in INS-1 cells (qRT-PCR). The class given is cell-based, Rat. As to conditions: 25 mM glucose, 24 hrs. In short, it runs like this:
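Rat INS-1 cells were pre-cultured 24 h at 5 mM glucose, then exposed 24 h to 25 mM glucose ± compound. TXNIP mRNA was measured by one-step SYBR Green qRT-PCR and normalized to 18S rRNA (2^−ΔΔCT). % inhibition was fitted to a 4-parameter logistic for IC50.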

A further data set concerns alpha TC1-6 cells. Briefly: Glucagon secretion of alpha TC1-6 cells. The class given is cell-based. As to conditions: incubation of alpha TC1-6 cells with compound.
Another data set concerns INS-1 cells. Nature of the data set: INS-1 cell viability (Cell Titer-Glo, ATP). The format is cell-based, Rat. The settings on record: 72 hrs treatment, hydrochloride. In short, it runs like this:
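Cells seeded at 4.5×10^4 or 3.5×10^4 per well, incubated overnight at 37° C, 5% CO2, then treated with compounds for 24 hrs or 72 hrs respectively. Viability taken as ATP content by Cell Titer-Glo luminescence.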

[1] abbreviates: about 100 mg/kg/d in drinking water, three weeks.
Where [2] appears, read: vs untreated db/db, hydrochloride.

“Also recorded” adds a separate entry of the source.

As for `CS(=O)(=O)NCC1CCCN(c2ncnc3ccc(C(F)(F)F)cc23)C1.Cl` (centres unmarked) [Compound 11a, N-((1-(6-(trifluoromethyl)quinazolin-4-yl)piperidin-3-yl)methyl)methanesulfonamide hydrochloride], the blood glucose levels result with wild-type mice (setting [1]) was “small but significant decrease”; with db/db mice (setting [2]), “significantly lower; also recorded: decreased significantly”; in the data set with STZ-diabetic mice (STZ (day 1-5) wild-type mice, oral compound day 5-15, vs untreated STZ mice), “significantly lower”; in the data set with STZ-diabetic mice (overtly diabetic STZ mice, gavage 100 mg/kg b.i.d or 30 mg/kg b.i.d., vs vehicle), “significantly decreased in a dose-dependent manner”. Moreover, the body weight result in the data set with wild-type mice (setting [1]) was “no change”; in the data set on db/db mice (setting [2]), “no significant effect; also recorded: no difference”; with STZ-diabetic mice (STZ-treated mice, oral 100 mg/kg/d, hydrochloride, 100 mg/kg/day) it was “no detrimental effect; also recorded: maintained a normal body weight”. Moreover, the “gross abnormalities in organs upon sacrifice” value with wild-type mice (setting [1]) is reported as “no gross abnormalities”. Further, the “fasting serum glucagon levels” value is on record as “decreased” in the data set with wild-type mice (about 100 mg/kg/d in drinking water, vs control) and “significant decrease” in the data set on db/db mice. The “basal hepatic glucose production” value in the data set on wild-type mice (hyperinsulinemic-euglycemic clamp, vs control) was “significant decrease”. For the same compound, in the data set with wild-type mice (oral, vs control), the liver triglyceride levels entry is “two-fold lower”. Also, the “serum non-esterified fatty acids” value in the data set on wild-type mice (oral, vs control) is recorded as “significantly lower”. The serum triglycerides result in the data set on wild-type mice (oral, vs control) is “significantly lower”. For the same compound, in the data set with STZ-diabetic mice (STZ-treated mice, oral 100 mg/kg/d, throughout experiment, sacrifice and dissection), the “detrimental effects or abnormalities” value is “no detrimental effects or abnormalities”. Moreover, in the data set on STZ-diabetic mice (oral 100 mg/kg/d starting after multiple low-dose STZ regimen), the protection against diabetes result is “effectively protected”. The “TXNIP % Inhibition at 1.5 μM” value with TXNIP (1.5 μM compound) came out at 35%. The “TXNIP % Inhibition at 12.5 μM” value with TXNIP (12.5 μM compound) is reported as 57%. Moreover, in the data set on alpha TC1-6 cells, the glucagon secretion entry is “decreased”. Further, the CC50 in the data set on INS-1 cells was more than 100 µM.
